Experimental data reported in ChEMBL document CHEMBL3580597 (J Med Chem, 2015).

Assays:
[1] = test system: K562; test: cells; type: functional, cell-based; conditions: Homo sapiens, K562, 96 h
[2] = target: T1, Bromodomain-containing protein 4 (Homo sapiens, UniProt O60885); test: Displacement of FAM-labeled ZBA248 from BRD4 BD1 (44 to 168 amino acid residues) (unknown origin) expressed in Rosetta2 DE3 cells after 30 mins by fluorescence polarization assay
[3] = target: T2, Bromodomain-containing protein 2 (Homo sapiens, UniProt P25440); test: Displacement of FAM-labeled ZBA248 from BRD2 BD2 (349 to 460 amino acid residues) (unknown origin) expressed in Rosetta2 DE3 cells after 30 mins by fluorescence polarization assay
T2 sequence (P25440 whole entry, the tested form may be a part): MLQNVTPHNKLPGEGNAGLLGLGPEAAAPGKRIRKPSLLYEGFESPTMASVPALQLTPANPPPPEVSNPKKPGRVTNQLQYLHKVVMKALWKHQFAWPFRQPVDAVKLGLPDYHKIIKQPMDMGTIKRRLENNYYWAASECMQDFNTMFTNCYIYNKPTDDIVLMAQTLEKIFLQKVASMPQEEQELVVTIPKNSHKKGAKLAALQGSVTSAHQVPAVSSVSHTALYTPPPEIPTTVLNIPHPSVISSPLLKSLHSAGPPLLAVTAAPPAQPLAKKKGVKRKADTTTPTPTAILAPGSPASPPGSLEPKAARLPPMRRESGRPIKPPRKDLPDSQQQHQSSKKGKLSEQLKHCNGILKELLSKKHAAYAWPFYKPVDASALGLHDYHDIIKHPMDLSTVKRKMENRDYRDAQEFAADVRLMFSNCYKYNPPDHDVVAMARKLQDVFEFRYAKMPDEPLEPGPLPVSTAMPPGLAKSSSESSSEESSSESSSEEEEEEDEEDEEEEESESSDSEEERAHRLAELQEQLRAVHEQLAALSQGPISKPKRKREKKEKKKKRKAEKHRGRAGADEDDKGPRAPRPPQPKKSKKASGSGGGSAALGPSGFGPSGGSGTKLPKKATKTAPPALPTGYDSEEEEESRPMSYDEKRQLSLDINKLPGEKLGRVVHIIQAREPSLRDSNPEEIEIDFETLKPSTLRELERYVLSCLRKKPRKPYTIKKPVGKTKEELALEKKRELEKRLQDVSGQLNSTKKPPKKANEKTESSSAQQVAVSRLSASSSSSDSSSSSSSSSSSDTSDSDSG

[4] = target: T2, Bromodomain-containing protein 2; test: Displacement of FAM-labeled ZBA248 from BRD2 BD1 (72 to 205 amino acid residues) (unknown origin) expressed in Rosetta2 DE3 cells after 30 mins by fluorescence polarization assay
[5] = target: T1, Bromodomain-containing protein 4; test: Displacement of FAM-labeled ZBA248 from BRD4 BD2 (333 to 460 amino acid residues) (unknown origin) expressed in Rosetta2 DE3 cells after 30 mins by fluorescence polarization assay
[6] = target: CREB-binding protein (Homo sapiens, UniProt Q92793); test: Binding affinity to biotinylated CREBBP (1043 to 1159 amino acid residues) (unknown origin) expressed in Rosetta2 DE3 cells by bio-layer interferometry method
CREB-binding protein, sequence (Q92793 whole entry, the tested form may be a part): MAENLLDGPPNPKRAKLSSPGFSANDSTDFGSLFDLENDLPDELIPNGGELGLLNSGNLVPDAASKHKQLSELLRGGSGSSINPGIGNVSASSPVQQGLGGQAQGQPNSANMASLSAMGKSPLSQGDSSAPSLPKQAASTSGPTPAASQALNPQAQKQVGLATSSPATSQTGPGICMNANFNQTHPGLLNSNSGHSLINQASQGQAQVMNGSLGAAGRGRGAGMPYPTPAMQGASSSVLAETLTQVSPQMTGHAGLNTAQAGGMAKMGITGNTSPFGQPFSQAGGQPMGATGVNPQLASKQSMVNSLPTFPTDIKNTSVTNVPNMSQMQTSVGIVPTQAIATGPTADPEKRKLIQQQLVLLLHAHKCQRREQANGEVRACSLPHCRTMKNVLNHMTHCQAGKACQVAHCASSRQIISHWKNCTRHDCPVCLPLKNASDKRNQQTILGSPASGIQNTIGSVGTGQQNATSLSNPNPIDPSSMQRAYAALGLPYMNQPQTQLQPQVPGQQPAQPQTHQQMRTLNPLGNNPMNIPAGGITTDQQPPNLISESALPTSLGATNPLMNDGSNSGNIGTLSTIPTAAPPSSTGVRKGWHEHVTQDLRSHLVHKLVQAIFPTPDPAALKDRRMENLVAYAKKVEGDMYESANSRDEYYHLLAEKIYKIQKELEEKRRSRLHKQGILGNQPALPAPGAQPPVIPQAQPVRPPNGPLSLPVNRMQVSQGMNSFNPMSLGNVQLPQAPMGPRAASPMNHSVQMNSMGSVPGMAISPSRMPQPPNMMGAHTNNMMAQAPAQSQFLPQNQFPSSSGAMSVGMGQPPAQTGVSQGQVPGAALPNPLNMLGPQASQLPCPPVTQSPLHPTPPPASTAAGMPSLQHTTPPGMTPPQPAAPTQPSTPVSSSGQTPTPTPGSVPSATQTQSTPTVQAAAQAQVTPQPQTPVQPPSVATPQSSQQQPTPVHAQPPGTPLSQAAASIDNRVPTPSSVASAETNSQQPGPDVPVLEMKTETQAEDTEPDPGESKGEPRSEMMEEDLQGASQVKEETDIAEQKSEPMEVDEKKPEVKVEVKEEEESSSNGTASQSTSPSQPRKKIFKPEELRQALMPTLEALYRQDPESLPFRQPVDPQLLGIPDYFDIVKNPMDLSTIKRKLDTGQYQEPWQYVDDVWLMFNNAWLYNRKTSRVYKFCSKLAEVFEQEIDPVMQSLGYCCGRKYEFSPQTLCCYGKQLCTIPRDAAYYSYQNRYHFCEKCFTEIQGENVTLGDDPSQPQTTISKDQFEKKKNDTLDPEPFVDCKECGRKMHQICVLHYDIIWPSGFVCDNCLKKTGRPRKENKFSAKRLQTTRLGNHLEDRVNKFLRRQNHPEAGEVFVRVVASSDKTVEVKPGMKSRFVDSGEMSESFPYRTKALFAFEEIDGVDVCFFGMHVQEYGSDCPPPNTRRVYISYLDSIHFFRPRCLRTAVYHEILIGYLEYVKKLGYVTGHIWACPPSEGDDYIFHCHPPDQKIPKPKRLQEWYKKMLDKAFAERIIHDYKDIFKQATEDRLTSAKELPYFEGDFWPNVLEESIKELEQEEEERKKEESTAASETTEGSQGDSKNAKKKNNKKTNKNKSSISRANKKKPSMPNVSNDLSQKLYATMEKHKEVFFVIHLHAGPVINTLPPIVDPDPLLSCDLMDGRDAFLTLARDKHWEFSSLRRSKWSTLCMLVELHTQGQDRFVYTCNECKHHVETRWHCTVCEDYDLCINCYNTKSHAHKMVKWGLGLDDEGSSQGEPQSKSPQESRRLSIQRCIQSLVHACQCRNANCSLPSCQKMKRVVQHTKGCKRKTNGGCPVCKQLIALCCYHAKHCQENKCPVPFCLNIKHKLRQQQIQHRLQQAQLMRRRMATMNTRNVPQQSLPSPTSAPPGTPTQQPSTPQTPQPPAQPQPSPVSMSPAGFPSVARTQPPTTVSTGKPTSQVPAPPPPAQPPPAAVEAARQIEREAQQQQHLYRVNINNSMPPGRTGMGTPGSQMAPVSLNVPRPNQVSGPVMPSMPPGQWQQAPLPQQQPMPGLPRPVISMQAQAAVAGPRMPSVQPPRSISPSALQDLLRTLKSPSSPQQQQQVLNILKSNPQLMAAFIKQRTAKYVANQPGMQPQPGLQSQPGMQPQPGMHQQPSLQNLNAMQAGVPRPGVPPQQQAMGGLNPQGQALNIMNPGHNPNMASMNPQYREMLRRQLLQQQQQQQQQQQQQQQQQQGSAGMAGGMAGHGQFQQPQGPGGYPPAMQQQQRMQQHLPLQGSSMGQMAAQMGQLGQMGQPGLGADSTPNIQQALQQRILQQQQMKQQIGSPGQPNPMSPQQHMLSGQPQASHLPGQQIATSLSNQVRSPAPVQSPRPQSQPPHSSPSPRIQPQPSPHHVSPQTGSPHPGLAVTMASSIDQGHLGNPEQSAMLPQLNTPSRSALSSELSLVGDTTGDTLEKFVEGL

[7] = target: T3, ATPase family AAA domain-containing protein 2 (Homo sapiens, UniProt Q6PL18); test: Binding affinity to biotinylated ATAD2A (981 to 1108 amino acid residues) (unknown origin) expressed in Rosetta2 DE3 cells by bio-layer interferometry method
T3 sequence (Q6PL18 whole entry): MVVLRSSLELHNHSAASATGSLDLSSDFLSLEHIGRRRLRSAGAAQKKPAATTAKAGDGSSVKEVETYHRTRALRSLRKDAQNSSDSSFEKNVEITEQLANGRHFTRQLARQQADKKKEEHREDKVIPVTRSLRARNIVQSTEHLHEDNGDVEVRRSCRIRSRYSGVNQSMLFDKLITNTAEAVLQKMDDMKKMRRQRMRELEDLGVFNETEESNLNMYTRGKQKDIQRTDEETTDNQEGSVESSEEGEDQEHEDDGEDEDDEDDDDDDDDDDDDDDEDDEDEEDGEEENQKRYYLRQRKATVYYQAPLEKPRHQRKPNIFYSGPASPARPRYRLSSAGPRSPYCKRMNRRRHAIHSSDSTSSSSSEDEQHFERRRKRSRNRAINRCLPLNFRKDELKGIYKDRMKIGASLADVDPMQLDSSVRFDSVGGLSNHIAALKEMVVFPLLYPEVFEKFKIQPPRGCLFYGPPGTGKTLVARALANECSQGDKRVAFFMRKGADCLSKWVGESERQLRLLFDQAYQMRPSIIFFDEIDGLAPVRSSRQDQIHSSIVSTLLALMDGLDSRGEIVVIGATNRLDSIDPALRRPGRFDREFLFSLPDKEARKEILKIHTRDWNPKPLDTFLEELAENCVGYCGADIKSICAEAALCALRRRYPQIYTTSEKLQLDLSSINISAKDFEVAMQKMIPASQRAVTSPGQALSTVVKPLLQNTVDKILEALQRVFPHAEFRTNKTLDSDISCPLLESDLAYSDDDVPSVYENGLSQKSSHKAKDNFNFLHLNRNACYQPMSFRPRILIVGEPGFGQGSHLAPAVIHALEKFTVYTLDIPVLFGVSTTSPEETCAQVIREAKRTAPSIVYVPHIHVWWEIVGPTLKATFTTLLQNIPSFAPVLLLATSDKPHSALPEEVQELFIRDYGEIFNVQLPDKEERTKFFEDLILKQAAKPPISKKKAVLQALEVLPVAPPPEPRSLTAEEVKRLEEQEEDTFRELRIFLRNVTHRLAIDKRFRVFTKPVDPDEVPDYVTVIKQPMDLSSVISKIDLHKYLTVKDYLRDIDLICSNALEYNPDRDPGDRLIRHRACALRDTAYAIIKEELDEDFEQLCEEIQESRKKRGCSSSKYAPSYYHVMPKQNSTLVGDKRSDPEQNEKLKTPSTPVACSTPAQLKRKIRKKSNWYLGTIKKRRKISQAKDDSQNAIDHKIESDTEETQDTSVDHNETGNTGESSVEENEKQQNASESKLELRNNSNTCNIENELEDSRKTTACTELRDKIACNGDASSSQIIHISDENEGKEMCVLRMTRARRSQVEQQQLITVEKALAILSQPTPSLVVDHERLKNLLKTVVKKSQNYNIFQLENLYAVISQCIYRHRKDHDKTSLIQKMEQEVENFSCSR

[8] = test system: MV4-11; test: cells; type: functional, cell-based; conditions: Homo sapiens, MV4-11, 96 h
[9] = target: T4, Bromodomain-containing protein 3 (Homo sapiens, UniProt Q15059); test: biochemical; type: cell-based
T4 sequence (Q15059 whole entry, the tested form may be a part): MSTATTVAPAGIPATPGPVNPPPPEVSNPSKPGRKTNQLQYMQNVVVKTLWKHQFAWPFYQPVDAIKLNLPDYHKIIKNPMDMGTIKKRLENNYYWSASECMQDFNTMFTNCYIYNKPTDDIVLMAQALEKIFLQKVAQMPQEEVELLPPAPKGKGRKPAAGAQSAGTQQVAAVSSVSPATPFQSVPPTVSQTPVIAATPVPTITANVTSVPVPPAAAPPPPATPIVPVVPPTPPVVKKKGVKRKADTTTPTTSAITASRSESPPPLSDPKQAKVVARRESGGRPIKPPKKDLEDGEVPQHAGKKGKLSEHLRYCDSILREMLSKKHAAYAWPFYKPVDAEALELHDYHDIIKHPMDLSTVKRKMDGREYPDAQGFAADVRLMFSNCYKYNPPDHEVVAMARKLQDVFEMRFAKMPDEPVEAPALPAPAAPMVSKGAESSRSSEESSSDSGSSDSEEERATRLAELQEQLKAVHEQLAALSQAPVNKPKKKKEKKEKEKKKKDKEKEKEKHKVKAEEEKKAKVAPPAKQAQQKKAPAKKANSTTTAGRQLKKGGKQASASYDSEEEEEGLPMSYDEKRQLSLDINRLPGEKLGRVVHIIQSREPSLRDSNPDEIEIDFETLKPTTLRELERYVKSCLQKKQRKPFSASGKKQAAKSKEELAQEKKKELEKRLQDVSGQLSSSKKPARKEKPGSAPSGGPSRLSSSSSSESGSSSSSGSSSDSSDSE

[10] = target: T4, Bromodomain-containing protein 3; test: Displacement of FAM-labeled ZBA248 from BRD3 BD2 (306 to 417 amino acid residues) (unknown origin) expressed in Rosetta2 DE3 cells after 30 mins by fluorescence polarization assay
[11] = target: T4, Bromodomain-containing protein 3; test: Binding affinity to biotinylated BRD3 BD2 (306 to 417 amino acid residues) (unknown origin) expressed in Rosetta2 DE3 cells by bio-layer interferometry method
[12] = target: T4, Bromodomain-containing protein 3; test: Displacement of FAM-labeled ZBA248 from BRD3 BD1 (24 to 144 amino acid residues) (unknown origin) expressed in Rosetta2 DE3 cells after 30 mins by fluorescence polarization assay

Question: How did the IC50 [1] turn out when CCc1n[nH]c(CC)c1-c1nccc2[nH]c3cc(-c4c(C)noc4C)c(OC)cc3c12 was run?
Answer: > 2000 nM

Question: What about the IC50 [2] of the same molecule?
Answer: 131 nM

Question: What about the Ki [2] of the same molecule?
Answer: 44.1 nM

Question: What about the Ki [3] of the same molecule?
Answer: 15.4 nM

Question: What about the Ki [4] of the same molecule?
Answer: 21 nM

Question: What about the IC50 [5] of the same molecule?
Answer: 61.9 nM

Question: And the Ki [5]?
Answer: 16.1 nM

Question: Which results are given for COc1cc2c(cc1-c1c(C)noc1C)[nH]c1ccncc12?
Answer: IC50 [2]: 4590 nM; IC50 [5]: 2690 nM

Question: For COc1cc2c(cc1-c1c(C)noc1C)[nH]c1ccnc(-c3c(C)nn(-c4ccccc4)c3C)c12, which IC50 [2] is on record?
Answer: 301 nM

Question: What about the Ki [2] of the same molecule?
Answer: 103 nM

Question: What about the IC50 [5] of the same molecule?
Answer: 316 nM

Question: And the Ki [5]?
Answer: 98.1 nM

Question: For Cc1sc2c(c1C)C(c1ccc(Cl)cc1)=N[C@@H](CC(=O)OC(C)(C)C)c1nnc(C)n1-2, which IC50 [1] is on record?
Answer: > 2000 nM

Question: For CCc1onc(C)c1-c1cc2[nH]c3ccnc(Cl)c3c2cc1OC, which IC50 [2] is on record?
Answer: 9440 nM

Question: And the Ki [2]?
Answer: 2810 nM

Question: What about the IC50 [5] of the same molecule?
Answer: 13800 nM

Question: And the Ki [5]?
Answer: 2180 nM

Question: Which Kd [6] does the source give for CCNC(=O)C[C@@H]1N=C(c2ccc(Cl)cc2)c2cc(OC)ccc2-n2c(C)nnc21 [MOLIBRESIB] here?
Answer: > 10 µM

Question: And the Kd [7]?
Answer: > 10 µM

Question: With COc1cc2c(cc1-c1c(C)noc1C)[nH]c1ccnc(-c3cn[nH]c3)c12 as the molecule, how does the IC50 [2] read?
Answer: 702 nM

Question: And the IC50 [5]?
Answer: 658 nM

Question: For CCc1noc(CC)c1-c1cc2[nH]c3ccnc(Cl)c3c2cc1OC, which IC50 [2] is on record?
Answer: > 10000 nM

Question: And the Ki [2]?
Answer: > 10000 nM

Question: What about the IC50 [5] of the same molecule?
Answer: 74000 nM

Question: What about the Ki [5] of the same molecule?
Answer: 8320 nM

Question: What does the source list for COc1cc2c(cc1-c1c(C)noc1C)[nH]c1ccnc(Cl)c12?
Answer: IC50 [2]: 862 nM; IC50 [5]: 579 nM

Question: Which IC50 [2] does the source give for COc1cc2c(cc1-c1c(C)n[nH]c1C)[nH]c1ccnc(Cl)c12 here?
Answer: 4870 nM

Question: What about the Ki [2] of the same molecule?
Answer: 1730 nM

Question: And the IC50 [5]?
Answer: 2580 nM

Question: And the Ki [5]?
Answer: 867 nM

Question: Which results are given for CCc1noc(C)c1-c1cc2[nH]c3ccnc(Cl)c3c2cc1OC?
Answer: IC50 [2]: 3870 nM; Ki [2]: 1240 nM; IC50 [5]: 1820 nM; Ki [5]: 478 nM

Question: Which IC50 [2] does the source give for COc1cc2c(cc1-c1c(C)noc1C)[nH]c1ccnc(-c3c(C)n[nH]c3C)c12 here?
Answer: 276 nM

Question: What about the IC50 [5] of the same molecule?
Answer: 324 nM

Question: For COc1cc2c(cc1-c1c(C)noc1C)[nH]c1ccnc(-c3c(C)noc3C)c12, which IC50 [2] is on record?
Answer: 134 nM

Question: What about the Ki [2] of the same molecule?
Answer: 47.8 nM

Question: What about the IC50 [5] of the same molecule?
Answer: 221 nM

Question: What about the Ki [5] of the same molecule?
Answer: 70.1 nM

Question: Which IC50 [2] does the source give for COc1cc2c(cc1-c1c(C)nn(C)c1C)[nH]c1ccnc(Cl)c12 here?
Answer: 14000 nM

Question: And the Ki [2]?
Answer: 4840 nM

Question: And the IC50 [5]?
Answer: 6170 nM

Question: And the Ki [5]?
Answer: 1950 nM

Question: What does the source list for COc1cc2c(cc1-c1c(C)noc1C)ncc1[nH]c(=O)n([C@H](C)c3ccccn3)c12?
Answer: Kd [6]: 3.08 µM; IC50 [1]: > 2000 nM; IC50 [8]: 162 nM; Kd [7]: > 10 µM; Kd [9]: 29.8 nM; Ki [10]: 22.3 nM; Kd [11]: 40.5 nM; Ki [12]: 7.2 nM
